For one series, the target named is T1, α2B(h) (Homo sapiens, UniProt P18089).
T1 sequence (P18089 1-450): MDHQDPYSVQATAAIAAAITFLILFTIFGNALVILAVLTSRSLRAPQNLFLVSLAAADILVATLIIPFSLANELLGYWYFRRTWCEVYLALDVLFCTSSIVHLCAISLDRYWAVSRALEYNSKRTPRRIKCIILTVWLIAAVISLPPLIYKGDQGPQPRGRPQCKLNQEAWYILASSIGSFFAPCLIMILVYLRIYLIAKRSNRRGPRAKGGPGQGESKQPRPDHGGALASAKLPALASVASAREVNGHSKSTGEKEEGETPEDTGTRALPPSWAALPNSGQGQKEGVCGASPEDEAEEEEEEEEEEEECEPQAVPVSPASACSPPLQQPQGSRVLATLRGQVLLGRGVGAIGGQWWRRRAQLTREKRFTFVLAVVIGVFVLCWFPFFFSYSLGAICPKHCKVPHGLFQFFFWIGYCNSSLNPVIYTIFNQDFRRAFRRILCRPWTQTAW
It is filed as binding.

The target of the next series is κ (KOP) (Rattus norvegicus, UniProt P34975). The class given is binding.
In series [1] the target is T2, μ (MOP) (h) (Homo sapiens, UniProt P35372). It is filed as cell-based.
The subject of another series is MDR1-MDCK cells. Nature of the series: MDR1-MDCK Permeability and Identification of P-gp Substrate (Bi-directional). The class given is in vitro ADME, canine. Particulars: for efflux ratio: minus inhibitor (absence of cyclosporin A). On the procedure: MDR1-MDCK Permeability and Identification of P-gp Substrate (Bi-directional): Madin-Darby canine kidney (MDCK) cells are an epithelial cell line of canine kidney origin. These cells can be stably transfected to express active P-glycoprotein (MDR1-MDCK) and are ideal for studying drug efflux. Test compound was added to either the apical or basolateral side of a confluent monolayer of MDR1-MDCK cells and permeability was measured by monitoring the appearance of the test compound on the opposite side of the monolayer using LC-MS/MS. The efflux ratio (ER) was calculated from the ratio of B-A and A-B permeabilities. Experiments were performed in the absence and presence of a P-glycoprotein (P-gp) inhibitor (cyclosporin A (10 μM)) to determine whether the compound was subject to P-gp mediated efflux.
Experimental Procedure: MDR1-MDCK cells obtained from the NIH (Rockville, MD, USA) were used between passage numbers 6-30. Cells were seeded onto Millipore Multiscreen Transwell plates at 3.4×10^5 cells/cm^2. The cells were cultured in DMEM and media was changed on day 3. On day 4 the permeability study was performed. Cell culture and assay incubations were carried out at 37° C. in an atmosphere of 5% CO2 with a relative humidity of 95%. […]
The dosing solutions were prepared by diluting test compound with assay buffer to give a final test compound concentration of 10 μM (final DMSO concentration of 1% v/v). […] Test compound permeability was measured on two occasions, in the absence and in the presence of a P-gp inhibitor on both sides of the monolayer. […]
For assessment of A-B permeability. […] Test compound permeability was assessed in duplicate. […] Test and control compounds were quantified by LC-MS/MS cassette analysis using an 8-point calibration with appropriate dilution of the samples. […] The starting concentration (C0) was determined from the dosing solution and the experimental recovery calculated from C0 and both apical and basolateral compartment concentrations. […]

The target in another series is T3, CYP2D6 (Homo sapiens, UniProt P10635).
T3 construct: from tissue
As to the kind of experiment: Time Dependent Inhibition of CYP2D6 (Dextromethorphan; IC50 Shift). The class given is in vitro ADME. The conditions noted are these: for CYP2D6 inhibition: at 25 μM. On the procedure: The probe substrate dextromethorphan (5 μM) and NADPH (1 mM) were then added (final DMSO concentration 0.3%) and the samples incubated for 5 min at 37° C. The selective time dependent CYP2D6 inhibitor, paroxetine, was screened alongside the test compounds as a positive control. The reactions were terminated by the addition of an aliquot of the incubation into methanol. The samples were centrifuged at 2500 rpm for 30 min at 4° C., and aliquots of the supernatant are diluted with formic acid in deionised water (final concentration 0.1%) containing internal standard prior to analysis of dextrorphan by LC-MS/MS.

The next series deals with plasma proteins. As to the kind of experiment: Binding to plasma proteins. It is filed as in vitro ADME.
A short description of series [2]: Bioavailability and Stability. The class given is in vitro ADME. An excerpt:
Bioavailability and Stability: Compounds of the invention were studied in detail, using several parameters to evaluate bioavailability and stability.

The next series concerns animal models. As to the kind of experiment: Toxicity in animal models. The class given is in vivo. Particulars: many animal models, even at high concentrations. An excerpt: Toxicity: The Compound 1 was studied for its toxicity in many animal models.
Series [3] relates to L-DOPA induced dyskinesias. Nature of the series: L-DOPA induced dyskinesias, Rodent in vivo model.
Series [4] concerns L-DOPA induced dyskinesias. As to the kind of experiment: L-DOPA induced dyskinesias, Primate in vivo model.
Series [5] concerns CD-1 mice. As to the kind of experiment: Mice conditioned place preference (CPP) chamber test. The class given is in vivo. The conditions noted are these: Compound 1 10 mg/kg IP, 10 minutes later Morphine 10 mg/kg SC, versus Morphine alone; FIG. 1.
In series [6] the test system is CD-1 mice. As to the kind of experiment: Mouse Tail Flick Test. It is filed as in vivo. The conditions noted are these: compound 1 10 mg/kg IP, 10 minutes later Morphine 10 mg/kg SC, versus Morphine alone; FIGS. 2A-2C.
The target in series [7] is CYP1A2 (Homo sapiens, UniProt P05177). Particulars: 0.1 μM-25 μM, human liver microsomes.
Series [8] addresses CYP2B6 (Homo sapiens, UniProt P20813). Particulars: 0.1 μM-25 μM, human liver microsomes.
Series [9] concerns the target T4, CYP3A4 (Homo sapiens, UniProt P08684). The conditions noted are these: 0.1 μM-25 μM, human liver microsomes, substrate midazolam.
For series [10], the target named is T4, CYP3A4. The conditions noted are these: 0.1 μM-25 μM, human liver microsomes, substrate testosterone.
In series [11] the test system is CYP1A2. Particulars: human hepatocytes, 72 hr, 0.4-100 μM, any concentration tested.
For series [12], the system named is CYP2B6. Particulars: human hepatocytes, 72 hr, at 100 μM.
In series [13] the test system is CYP3A4. The conditions noted are these: human hepatocytes, 72 hr, 0.4-100 μM, any concentration tested.
For another series, the system named is Caco-2 cells. As to the kind of experiment: Caco-2 Permeability (A-B or Bi-directional).
Series [14] in a line: Brain Tissue Binding, equilibrium dialysis, rat. Particulars: brain homogenate.
The nature of series [15]: Brain Tissue Binding, equilibrium dialysis, mouse. The conditions noted are these: fraction unbound could not be determined.
For a further series, the target named is CYP2C8 (Homo sapiens, UniProt P10632). As to the kind of experiment: CYP2C8 Inhibition, human liver microsomes, paclitaxel. Particulars: 0.1 μM-25 μM.
Another series addresses CYP2C9 (Homo sapiens, UniProt P11712). Nature of the series: CYP2C9 Inhibition, human liver microsomes, tolbutamide. Particulars: 0.1 μM-25 μM.
In another series the target is hERG potassium channel (Homo sapiens, UniProt Q12809). As to the kind of experiment: hERG Channel Inhibition (IC50 Determination), IonWorks automated patch clamp, CHO cells.
The target of series [16] is T2, μ (MOP) (h). The class given is binding.
The target of the next series is δ2 (DOP) (h) (Homo sapiens, UniProt P41143). It is filed as binding.

The values below come from US20250073217A1 (priority 2022, published 2025).

Like-named read-outs stand apart in the source and are kept apart here.

T3 sequence (P10635 whole entry): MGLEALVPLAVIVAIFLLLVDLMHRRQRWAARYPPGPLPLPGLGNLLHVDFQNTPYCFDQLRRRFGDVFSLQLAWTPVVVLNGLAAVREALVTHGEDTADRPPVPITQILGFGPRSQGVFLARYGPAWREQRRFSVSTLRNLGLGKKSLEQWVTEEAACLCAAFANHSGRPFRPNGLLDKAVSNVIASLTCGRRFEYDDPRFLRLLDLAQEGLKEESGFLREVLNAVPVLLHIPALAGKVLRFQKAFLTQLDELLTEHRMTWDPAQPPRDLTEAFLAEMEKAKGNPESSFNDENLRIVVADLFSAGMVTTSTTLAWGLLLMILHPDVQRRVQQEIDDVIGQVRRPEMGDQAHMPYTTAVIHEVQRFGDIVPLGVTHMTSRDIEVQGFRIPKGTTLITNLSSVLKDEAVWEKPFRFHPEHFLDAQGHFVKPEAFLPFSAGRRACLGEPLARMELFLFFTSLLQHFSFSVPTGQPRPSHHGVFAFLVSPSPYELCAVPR
Chain of κ (KOP) (P34975 whole entry): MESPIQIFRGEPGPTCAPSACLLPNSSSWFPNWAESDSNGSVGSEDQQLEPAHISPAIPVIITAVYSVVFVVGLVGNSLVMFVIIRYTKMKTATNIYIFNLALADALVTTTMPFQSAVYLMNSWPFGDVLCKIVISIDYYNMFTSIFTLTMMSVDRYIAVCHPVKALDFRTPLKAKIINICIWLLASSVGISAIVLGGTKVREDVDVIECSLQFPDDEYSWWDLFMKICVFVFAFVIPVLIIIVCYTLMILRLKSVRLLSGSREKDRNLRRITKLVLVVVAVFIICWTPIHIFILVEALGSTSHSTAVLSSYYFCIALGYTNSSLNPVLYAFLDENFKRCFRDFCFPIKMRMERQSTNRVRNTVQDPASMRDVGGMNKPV
T2 sequence (P35372 whole entry): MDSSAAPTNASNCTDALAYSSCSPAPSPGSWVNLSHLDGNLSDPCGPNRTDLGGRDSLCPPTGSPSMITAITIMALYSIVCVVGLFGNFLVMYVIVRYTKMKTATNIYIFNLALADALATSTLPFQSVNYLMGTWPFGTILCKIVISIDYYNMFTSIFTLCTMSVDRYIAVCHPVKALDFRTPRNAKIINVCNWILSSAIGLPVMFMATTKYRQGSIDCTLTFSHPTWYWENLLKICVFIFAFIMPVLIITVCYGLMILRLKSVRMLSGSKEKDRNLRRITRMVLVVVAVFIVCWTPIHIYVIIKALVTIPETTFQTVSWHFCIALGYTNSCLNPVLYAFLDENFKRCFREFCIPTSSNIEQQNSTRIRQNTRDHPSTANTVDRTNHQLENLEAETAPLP
Chain of δ2 (DOP) (h) (P41143 whole entry): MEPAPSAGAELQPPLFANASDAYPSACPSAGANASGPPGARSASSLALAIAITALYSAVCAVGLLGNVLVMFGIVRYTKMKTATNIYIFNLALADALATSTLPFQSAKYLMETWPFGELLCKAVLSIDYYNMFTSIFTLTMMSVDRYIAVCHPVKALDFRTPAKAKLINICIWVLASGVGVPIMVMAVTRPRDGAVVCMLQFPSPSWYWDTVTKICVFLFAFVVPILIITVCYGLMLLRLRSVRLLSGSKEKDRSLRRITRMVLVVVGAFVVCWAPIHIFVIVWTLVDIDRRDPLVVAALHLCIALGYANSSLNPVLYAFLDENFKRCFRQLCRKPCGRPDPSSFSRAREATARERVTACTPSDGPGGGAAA
T4 sequence (P08684 whole entry): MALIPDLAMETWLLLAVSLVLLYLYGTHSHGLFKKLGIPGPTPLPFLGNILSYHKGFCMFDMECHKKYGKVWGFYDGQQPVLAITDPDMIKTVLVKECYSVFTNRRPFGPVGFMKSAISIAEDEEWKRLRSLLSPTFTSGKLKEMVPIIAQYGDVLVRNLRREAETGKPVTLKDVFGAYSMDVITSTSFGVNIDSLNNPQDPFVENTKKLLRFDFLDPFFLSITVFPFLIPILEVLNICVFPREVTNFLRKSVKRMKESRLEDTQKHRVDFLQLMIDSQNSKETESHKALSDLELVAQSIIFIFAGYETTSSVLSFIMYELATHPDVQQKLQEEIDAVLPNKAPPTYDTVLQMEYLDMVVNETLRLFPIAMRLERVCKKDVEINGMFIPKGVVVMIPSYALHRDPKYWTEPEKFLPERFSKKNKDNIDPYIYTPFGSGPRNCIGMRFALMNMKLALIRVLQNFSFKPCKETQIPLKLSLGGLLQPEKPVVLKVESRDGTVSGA
Chain of CYP2C9 (P11712 whole entry): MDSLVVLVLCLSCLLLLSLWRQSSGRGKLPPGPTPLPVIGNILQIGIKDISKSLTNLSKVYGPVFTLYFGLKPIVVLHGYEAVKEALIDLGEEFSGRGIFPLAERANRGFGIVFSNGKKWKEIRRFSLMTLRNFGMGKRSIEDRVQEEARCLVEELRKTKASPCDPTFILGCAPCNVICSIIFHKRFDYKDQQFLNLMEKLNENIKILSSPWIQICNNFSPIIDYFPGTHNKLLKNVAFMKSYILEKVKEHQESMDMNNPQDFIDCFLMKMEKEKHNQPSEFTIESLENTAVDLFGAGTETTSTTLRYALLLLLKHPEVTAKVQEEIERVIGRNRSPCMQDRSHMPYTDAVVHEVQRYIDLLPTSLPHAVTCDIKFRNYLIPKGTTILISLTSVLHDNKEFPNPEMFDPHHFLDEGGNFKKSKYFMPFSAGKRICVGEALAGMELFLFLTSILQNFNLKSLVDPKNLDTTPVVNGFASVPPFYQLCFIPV
Chain of hERG potassium channel (Q12809 whole entry): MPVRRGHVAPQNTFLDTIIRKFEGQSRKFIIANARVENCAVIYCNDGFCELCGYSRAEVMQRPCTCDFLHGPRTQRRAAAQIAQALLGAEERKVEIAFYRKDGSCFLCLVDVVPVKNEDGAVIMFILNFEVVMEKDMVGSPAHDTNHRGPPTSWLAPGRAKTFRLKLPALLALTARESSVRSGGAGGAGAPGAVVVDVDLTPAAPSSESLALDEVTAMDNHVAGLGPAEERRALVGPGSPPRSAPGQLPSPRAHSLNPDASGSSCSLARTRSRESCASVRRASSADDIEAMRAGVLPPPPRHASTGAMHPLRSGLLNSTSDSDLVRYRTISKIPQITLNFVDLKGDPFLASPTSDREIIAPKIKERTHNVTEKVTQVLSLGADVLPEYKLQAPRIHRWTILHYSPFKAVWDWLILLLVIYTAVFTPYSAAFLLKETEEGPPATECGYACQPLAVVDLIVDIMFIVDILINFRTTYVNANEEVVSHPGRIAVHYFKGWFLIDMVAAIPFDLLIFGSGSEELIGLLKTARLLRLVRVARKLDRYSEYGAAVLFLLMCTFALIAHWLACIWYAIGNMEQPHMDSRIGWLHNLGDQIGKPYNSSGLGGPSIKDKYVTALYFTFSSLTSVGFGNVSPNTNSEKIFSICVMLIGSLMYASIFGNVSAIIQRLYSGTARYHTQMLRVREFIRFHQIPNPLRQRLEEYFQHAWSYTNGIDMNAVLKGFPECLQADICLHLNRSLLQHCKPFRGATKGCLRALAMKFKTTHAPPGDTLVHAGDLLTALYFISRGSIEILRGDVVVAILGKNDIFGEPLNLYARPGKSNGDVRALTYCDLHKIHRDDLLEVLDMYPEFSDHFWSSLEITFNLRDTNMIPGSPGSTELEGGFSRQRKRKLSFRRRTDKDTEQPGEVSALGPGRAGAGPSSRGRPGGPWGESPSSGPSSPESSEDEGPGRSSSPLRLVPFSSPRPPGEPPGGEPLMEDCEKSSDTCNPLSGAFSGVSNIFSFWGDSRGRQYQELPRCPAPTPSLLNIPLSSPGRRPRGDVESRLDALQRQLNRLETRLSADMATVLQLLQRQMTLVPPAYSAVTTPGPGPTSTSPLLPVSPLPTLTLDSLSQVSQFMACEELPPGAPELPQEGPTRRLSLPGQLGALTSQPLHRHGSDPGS
Chain of CYP1A2 (Homo sapiens, UniProt P05177) (P05177 whole entry): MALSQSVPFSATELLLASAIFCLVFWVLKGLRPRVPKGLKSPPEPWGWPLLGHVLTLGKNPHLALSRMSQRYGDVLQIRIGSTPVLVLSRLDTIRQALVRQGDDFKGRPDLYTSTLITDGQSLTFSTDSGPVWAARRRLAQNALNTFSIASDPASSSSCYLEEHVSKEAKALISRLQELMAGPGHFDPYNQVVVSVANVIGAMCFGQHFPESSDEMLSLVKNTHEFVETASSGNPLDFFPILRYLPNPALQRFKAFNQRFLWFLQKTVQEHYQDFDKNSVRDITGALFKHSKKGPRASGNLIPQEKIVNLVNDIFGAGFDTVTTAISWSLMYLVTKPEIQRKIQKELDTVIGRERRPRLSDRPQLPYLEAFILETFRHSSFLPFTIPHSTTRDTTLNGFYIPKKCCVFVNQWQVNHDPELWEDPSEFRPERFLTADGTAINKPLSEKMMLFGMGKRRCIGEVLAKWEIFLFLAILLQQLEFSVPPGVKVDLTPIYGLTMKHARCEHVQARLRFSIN
Chain of CYP2B6 (Homo sapiens, UniProt P20813) (P20813 whole entry): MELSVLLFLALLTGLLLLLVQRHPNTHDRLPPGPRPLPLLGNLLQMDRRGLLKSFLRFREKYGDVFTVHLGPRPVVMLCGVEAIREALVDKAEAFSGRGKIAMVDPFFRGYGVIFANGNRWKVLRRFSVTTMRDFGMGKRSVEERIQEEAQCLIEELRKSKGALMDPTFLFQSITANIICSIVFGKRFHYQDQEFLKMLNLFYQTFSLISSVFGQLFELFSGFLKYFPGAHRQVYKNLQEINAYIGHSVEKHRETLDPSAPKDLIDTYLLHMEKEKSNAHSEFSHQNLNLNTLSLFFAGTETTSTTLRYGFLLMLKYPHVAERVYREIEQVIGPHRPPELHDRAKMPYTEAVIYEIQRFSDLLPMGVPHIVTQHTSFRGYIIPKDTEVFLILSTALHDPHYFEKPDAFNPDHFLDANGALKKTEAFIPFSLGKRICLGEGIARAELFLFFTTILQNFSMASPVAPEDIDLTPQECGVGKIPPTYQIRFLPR

With `O=C(CCCCCCCBr)NC1CCN(CCc2ccccc2)CC1` [8-bromo-N-(1-phenethylpiperidin-4-yl)octanamide], the nH on α2B(h) was determined as 0.8; on κ (KOP), 0.5; at μ (MOP) (h) [1] it was 0.4.
On to `CCC(=O)NC1CCN(CCc2ccccc2)CC1` [Compound 1, N-(1-phenethylpiperidin-4-yl)propionamide], for which the “permeability in the MDCK assay” value in the series on MDR1-MDCK cells (10 μM, pH 7.4, 60 min) is reported as “highly permeable”. In addition, the figures for the efflux ratio in the series with MDR1-MDCK cells and in the series with Caco-2 cells (pH gradient (pH 6.8/7.4)) were 1.48 and 2.70, respectively. In addition, the IC50 at CYP2D6 (0 minute incubation) and at hERG potassium channel was above 25 µM throughout. For the same molecule, at CYP2D6 (IC50 shift, 30 min pre-incubation ± NADPH), the “time-dependent CYP2D6 inhibition” value is listed as “no evidence of time-dependent CYP2D6 inhibition”. For the same molecule, the CYP2D6 inhibition entry at CYP2D6 (0 minute incubation) and at CYP2D6 (30 minute plus NADPH incubation) was “approximately 40%” in each case. The “binding to plasma proteins” value in the series on plasma proteins was “weak, or no noticeable binding”. The bioavailability entry in series [2] is listed as “highly bioavailable”. Moreover, the toxicity entry in the series on animal models was “virtually no toxicity”. Also, the “inhibition of L-DOPA induced dyskinesias” value in series [3] (Rodent in vivo model) and in series [4] was “significant inhibition” throughout. The “effectiveness versus amantadine against L-dopa-induced dyskinesia” value in series [3] (comparison with amantadine, model not specified (Rodent and Primate models named)) is “significantly more effective than amantadine”. Also, the “time in chamber associated with morphine administration (CPP)” value in the series on CD-1 mice [5] was “significantly less time”. Besides, the “analgesic property (tail flick, 52° C. water)” value in the series on CD-1 mice [6] was “almost identical analgesic property compared to morphine alone”. For the same molecule, at CYP1A2 [7], the CYP1A2 inhibition entry was “No significant inhibition”. Further, the CYP2B6 inhibition result on CYP2B6 [8] is “No significant inhibition”. The “CYP3A4 inhibition (midazolam)” value at CYP3A4 [9] is recorded as “No significant inhibition”. The “CYP3A4 inhibition (testosterone)” value at CYP3A4 [10] was “No significant inhibition”. For the same molecule, the “CYP1A2 mRNA expression” value in the series on CYP1A2 [11] is reported as “didn't cause a statistically significant change”. Also, the “CYP2B6 mRNA expression” value with CYP2B6 [12] is listed as “slight, yet statistically significant decrease”. Further, the “CYP3A4 mRNA expression” value with CYP3A4 [13] is given as “didn't cause a statistically significant change”. Besides, the “permeability in the Caco-2 assay” value with Caco-2 cells (10 μM, pH gradient 6.8/7.4, 120 min) is on record as “highly permeable in both directions”. In addition, in series [14], the fraction unbound at 2 hr, 5 μM was determined as 0.249. Besides, the binding in mouse entry in [15] is recorded as “no binding at all could be detected”. Also, the CYP2C8 inhibition result on CYP2C8 was “No significant inhibition”. The CYP2C9 inhibition entry at CYP2C9 is “No significant inhibition”.
For `CCC(=O)NC1CCN(CCC(=O)OC)CC1` [Methyl 3-(4-propionamidopiperidin-1-yl) propanoate], the values for the nH at α2B(h), at κ (KOP) and at μ (MOP) (h) [16] were 1, 0.8 and 0.5, respectively.
Regarding `CCC(=O)NC1CCN(CCc2cccs2)CC1` [N-(1-(2-(thiophen-2-yl)ethyl)piperidin-4-yl)propionamide], the nH at α2B(h) was determined as 1.2; at δ2 (DOP) (h), 0.9; at κ (KOP), 0.6; at μ (MOP) (h) [1], 0.6.
As to `O=C(NC1CCN(CCc2ccccc2)CC1)c1ccccc1` [N-(1-phenethylpiperidin-4-yl)benzamide], the nH on α2B(h) is recorded as 1.3; on δ2 (DOP) (h), 0.7; on κ (KOP) it was 0.6; on μ (MOP) (h) [16] it was 0.9.
Turning to `O=C(NC1CCN(CCc2ccccc2)CC1)c1ccco1` [N-(1-phenethylpiperidin-4-yl)furan-2-carboxamide], the nH on α2B(h) amounted to 0.7; at δ2 (DOP) (h), 1; at κ (KOP), 1.1; on μ (MOP) (h) [16], 0.8.
The corresponding values for `O=C(NC1CCN(CCc2ccccc2)CC1)c1ccoc1` [N-(1-phenethylpiperidin-4-yl)furan-3-carboxamide] are 0.7, 1, 1.1 and 0.8.
Consider `COc1cc2nc(N3CCN(C(=O)c4ccco4)CC3)nc(N)c2cc1OC` [prazosin, reference compound], for which, in the series with MDR1-MDCK cells, the efflux ratio result is reported as “showing efflux”.
